Data taken from paper PMC11234460, “In Silico Discovery of Stapled Peptide Inhibitor Targeting the Nur77‐PPARγ Interaction and Its Anti‐Breast‐Cancer Efficacy” (Advanced Science, 2024).
Where a SMILES comes first, the peptide text is derived from it. Bridges are numbered along the chain shown (N, C = ends). [ ]: non-standard residue; d: D form. S5 = C=CCCC[C@](C)(N)C(=O)O

Key:
Nur77-PPARγ interaction = target: T1, Nur77-PPARγ interaction (Homo sapiens, UniProt P22736); experiment: Co-immunoprecipitation (IP: Nur77; IB: PPARγ, Trim13) in HEK293T cells; format: cell-based; details: 1 × 10^−5 M, 24 h
T1 construct: expressed in transfected cells; host or cells: HEK293T
Protocol: HEK293T cells were seeded overnight in 10 cm culture dishes and transfected with the Nur77 and PPARγ plasmids for 48 h. After transfection, T‐CY14 and ST‐CY14 were incubated with the cells for 24 h. The cells were then collected and lysed in 500 µL precooled NP40 lysis buffer (Beyotime, P0013F), which contained 20x […] and 50x phosphatase inhibitor. All the samples were prepared at a concentration of 1 mg mL^−1, and 0.5 mg of the sample was subsequently incubated overnight at 4 °C with 2 µg of Nur77 antibody (Proteintech, 12235‐1‐AP). The samples were then incubated with Protein A/G PLUS‐Agarose (Santa Cruz, sc‐2003) for 4 h at 4 °C. The beads were collected through centrifugation and washed five times with NP40 lysis buffer. Finally, 5x loading buffer was added to the buffer containing the beads for Western blot analysis of PPARγ antibody (Proteintech, 16643‐1‐AP), Trim13 antibody (Abcam, ab234847), and β‐actin antibody (epizyme, LF201).

MDA-MB-231 cells [1] = experiment: Cell viability assay (CCK-8); format: cell-based; details: MDA-MB-231, 5 × 10^−6 M, 24 h
Protocol: MCF7, MDA‐MB‐231, and MDA‐BoM‐1833 cells (5000 cells/well) were seeded in 96‐well plates and cultured overnight at 37°C and 5% CO2. The cells were then treated with fresh basic medium containing various concentrations (1/2/5/10/20 × 10^−6 M) of compounds. After 24 h of incubation, the cells were incubated with a basic medium containing 10% Cell Counting Kit‐8 (Dojindo, CK‐04) for 2 h. Cell viability was evaluated by measuring the absorbance at 450 nm. The formula used was [(As‐Ab)/(Ac‐Ab)] × 100%, where as represents the absorbance of the drug‐treated group, Ac represents the absorbance of the control group treated with medium, and Ab represents the absorbance of the blank control containing only medium.

MDA-MB-231 cells [2] = experiment: qPCR of CD36 and FABP4; format: cell-based; details: n = 3
MCF7 cells = experiment: Transwell cell migration analysis; format: cell-based, human; details: MCF7, 12 h
Protocol: 600 µL DMEM complete medium was added to the lower chamber of the Transwell. Next, 2×10^4 cells in 100 µL DMEM medium, containing 1, 2, 5, 10, or 2 × 10^−5 M peptides, were added to the upper chamber of the Transwell. The cells were incubated for 12 h at 37 °C and 5% CO2. After the incubation period, the medium was discarded, and the chamber was washed with PBS. The cells were then fixed with 4% paraformaldehyde for 20 min. The upper chamber was subsequently soaked in crystal violet for 20 min, washed with PBS, and observed under a microscope for analysis.

MDA-MB-231 cells [3] = experiment: Scratch (wound-healing) assay; format: cell-based; details: MDA-MB-231, 12 h
Protocol: MCF7 and MDA‐MB‐231 cells were seeded in 6‐well plates and cultured overnight. Once the cell density reached 90%, a line was scratched along the center of the 6‐well plate and images were taken randomly in the scratch domain under a microscope. The cells in each well were then treated with peptides of varying concentrations for 12 h, after which images were taken again in the scratch domain. The formula used to calculate the scratch healing rate was as follows: Scratch healing rate (%) = [(Scratch area at 0 h – Scratch area at 12 h) […] Scratch area at 0 h] × 100%.

T1 sequence (P22736 whole entry): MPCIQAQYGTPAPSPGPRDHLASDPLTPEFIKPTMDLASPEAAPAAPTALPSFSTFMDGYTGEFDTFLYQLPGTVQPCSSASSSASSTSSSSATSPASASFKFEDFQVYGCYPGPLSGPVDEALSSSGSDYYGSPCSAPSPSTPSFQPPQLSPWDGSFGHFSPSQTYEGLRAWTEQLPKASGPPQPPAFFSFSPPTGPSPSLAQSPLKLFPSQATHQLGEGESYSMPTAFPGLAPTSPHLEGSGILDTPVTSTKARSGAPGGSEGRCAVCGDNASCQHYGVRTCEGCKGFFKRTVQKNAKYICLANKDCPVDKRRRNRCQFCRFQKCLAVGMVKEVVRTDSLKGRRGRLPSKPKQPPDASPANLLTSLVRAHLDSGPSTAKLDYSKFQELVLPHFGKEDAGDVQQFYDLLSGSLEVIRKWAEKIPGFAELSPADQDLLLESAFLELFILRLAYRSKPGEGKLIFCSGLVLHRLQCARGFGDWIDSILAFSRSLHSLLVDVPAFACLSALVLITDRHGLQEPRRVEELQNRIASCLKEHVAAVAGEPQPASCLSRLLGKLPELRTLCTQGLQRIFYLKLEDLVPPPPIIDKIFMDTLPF

Q: `C[C@@H](O)[C@@H]1NC(=O)[C@H](CCCNC(=N)N)NC(=O)[C@H](CCCNC(=N)N)NC(=O)[C@@](C)(NC(=O)[C@H](Cc2ccccc2)NC(=O)CNC(=O)[C@H](CCCCN)NC(=O)[C@H](CS)NC(=O)CNC(=O)[C@H](CCC(=O)O)NC(=O)[C@@H](N)CS)CCCC=CCCC[C@@](C)(C(=O)N[C@@H](CCCNC(=N)N)C(=O)N[C@@H](Cc2ccc(O)cc2)C(=O)N[C@@H](Cc2ccc(O)cc2)C(=O)NCC(=O)N[C@@H](CCCNC(=N)N)C(=O)N[C@@H](CCCCN)C(=O)N[C@@H](CCCCN)C(=O)N[C@@H](CCCNC(=N)N)C(=O)N[C@@H](CCCNC(=N)N)C(=O)N[C@@H](CCC(N)=O)C(=O)N[C@@H](CCCNC(=N)N)C(=O)N[C@@H](CCCNC(=N)N)C(=O)N[C@@H](CCCNC(=N)N)C(N)=O)NC1=O` [ST-CY14] (H-CEGCKGF[S5]RRT[S5]RYYGRKKRRQRRR-NH2; staple 8-12) was tested. Which “Endogenous Nur77-PPARγ binding (Co-IP)” value (Nur77-PPARγ interaction) did it give?
A: inhibited the binding between Nur77 and PPARγ

Q: And the “Trim13 and ubiquitination of Nur77 (Co-IP)” value (Nur77-PPARγ interaction)?
A: obviously reduced the expression of Trim13 and attenuated the PPARγ‐induced ubiquitination of endogenous Nur77

Q: And the “Cell viability / proliferation” value (MDA-MB-231 cells [1])?
A: significantly attenuated breast tumor cell proliferation

Q: What about the “CD36 and FABP4 transcription (qPCR)” value (MDA-MB-231 cells [2]) of the same compound?
A: dose‐dependently inhibited CD36 and FABP4 expression at the transcriptional level

Q: What about the Transwell transmigration (MCF7 cells) of the same compound?
A: inhibited the transmigration

Q: What about the Scratch healing (MDA-MB-231 cells [3]) of the same compound?
A: suppressed the scratch healing
